Test results: patent US12318365B2, “Inhibition of dipeptide repeat proteins” (ALS Therapy Development Institute, priority 2019, dated 2025)
“Also recorded” adds a separate entry of the source. No end group written: not given here.

Experiments:
NSC-34 cells = experiment: BrdU ELISA (proliferation) in NSC-34 cells; format: cell-based, Mouse; settings: for effect of DRP on proliferation activity: compared to DMSO-treated controls; for abrogation of GR-induced proliferation inhibition: 300 nM GR15, 24 h
Experimental: BrdU ELISA: The BrdU ELISA is an ELISA detecting cell proliferation activity. BrdU is a pyrimidine analog that, when inside the cell, can be incorporated instead of thymidine into newly synthesized strands of DNA. Just as is indicated by thymidine incorporation into DNA, BrdU incorporation into cell DNA indicates DNA synthesis activity, which is required for cell proliferation. In the BrdU ELISA, cells are treated with test compounds as well as BrdU reagent, and then incubated for 24 hours before testing. During testing, an anti-BrdU antibody detects the incorporation of BrdU into cell DNA that occurred over the 24-hour period, as a surrogate for cell proliferation activity. This anti-BrdU antibody is then labelled with a secondary antibody tagged with a colored substrate, which can be quantified spectrophotometrically. Greater absorbance readings correspond to more cell proliferation activity.
Cells were plated in culture medium in 2 96-well plates at a density of 3.7×10^4 cells per well, and incubated overnight at 37° C., 5% CO2.
The following conditions were plated in triplicate.
Plates were incubated for 24 h at 37° C., 5% CO2. Cells were tested and data were analyzed using the procedure detailed in BrdU ELISA kit instructions.
Cells were plated in culture medium in 2 96-well plates at a density of 5×10^4 cells per well, and incubated overnight at 37° C., 5% CO2. […] 10 μL of each concentration would be added to 100 μL base media in plate to achieve final concentrations of 3, 1, 0.3, 0.1, 0.03, and 0.01 μM DRP.
The following conditions were plated in triplicate. Samples were surrounded by border wells on the outside of the plate filled with sterile Phosphate-buffered saline to prevent evaporation of volume in experimental wells during incubation; • Culture medium only • Background (Cells only in culture medium, without BrdU reagent) • Untreated (Cells only in culture medium, with BrdU reagent) • DMSO Controls (Cells treated with BrdU reagent and the amount of DMSO that DRP-treated cells were exposed to at each concentration) • i. The DMSO controls tested were as follows, corresponding to DRP doses starting at the highest (3 μM to the lowest 0.01 μM), and were diluted in culture medium: • 1. 0.03% DMSO • 2. 0.01% DMSO • 3. 0.003% DMSO • 4. 0.001% DMSO • 5. 0.0003% DMSO • 6.

[1] = test system: NSC-34 motor-neuron-like cells; experiment: WST-1 assay (dysmetabolism) in NSC-34 cells; format: cell-based, Mouse; settings: for reduction of metabolic activity in NSC-34 compared to CHO: DRP 30 and 3 μM, 48 h
Excerpt: WST-1 Assay: The WST-1 assay is a colorimetric assay that measures cell metabolism. Cells with a healthy metabolism contain mitochondrial dehydrogenase enzymes that remove hydrogen atoms from certain molecules, resulting in a release of energy that the cell can use to perform critical reactions. In the WST-1 assay, a water soluble tetrazolium salt substrate (known as WST-1) is applied, which readily enters cells and their mitochondria upon application. If cells are viable, their mitochondrial dehydrogenase enzymes will catalyze the reaction to convert this WST-1 substrate to a colored product called Formazan. The production of this colored Formazan product by viable cells can be quantified using a spectrophotometer (plate reader). Higher absorbance readings correspond to greater metabolic activity/cell viability.
NSC-34 Cell Culture: NSC-34 cells (Cedarlane Laboratories, Burlington, ON, CA) were cultured in a complete medium consisting of High Glucose Dulbecco's Modified Eagle Medium (Millipore-Sigma, Burlington, MA, USA) supplemented with 10% US-origin fetal bovine serum (Thermo-Fisher Scientific, Cambridge, MA, USA), 1% 200 mM L-Glutamine solution (Thermo-Fisher Scientific, Cambridge, MA, USA), and 1% 10,000 U/mL Penicillin-Streptomycin solution (Thermo-Fisher Scientific, Cambridge, MA, USA). Prior to preparation of NSC-34 complete medium, L-Glutamine and Penicillin-Streptomycin solutions were aliquoted and stored at −20° C., and DMEM/High Glucose was stored at 4°. […] Prepared complete medium, DPBS, and Trypsin were always heated in a 37° C. water bath before use, and stored at 4° C. between uses. Cell counts for plating were performed using a Hausser Scientific cell counting chamber (Thermo-Fisher Scientific, Cambridge, MA, USA).
Proteins were reconstituted in sterile DMSO (Millipore-Sigma, Burlington, MA, USA) to stock concentrations of 10 mM, and stored at 4° C.
After reconstitution using the solvents specified in Table _, stocks were aliquoted to 15-20 μL and immediately stored at −20° C.
One row on the top and bottom of the plate, and two columns on either side of the plate, were left without cells and contained culture medium only to minimize experimental well volume evaporation. After plating, cells were incubated for 24 h at 37° C., 5% CO2 prior to DRP and/or PRMT inhibitor addition. At time of DRP/PRMT inhibitor addition, desired doses of DRP for challenge and inhibitor for treatment were achieved by diluting aliquots of each stock in warm culture medium. During experiments where both PRMT inhibitors and DRPs were used, PRMT inhibitors were always applied to wells first, and followed by DRP application. […] Inhibitor toxicity controls were included as wells treated with the desired doses of drug for the experiment, but no DRP. DRP toxicity controls were included as wells only treated with the doses of DRP used for challenge. […] Additional controls needed for each endpoint are specified in the “WST-1 Assay” and “LDH Assay” sections of these methods.
WST-1 Assay: Cells were plated and prepared using the steps described in the “Plating NSC-34 and Dosing with DRPs and PRMT Inhibitors” section of these methods. Other controls for this experiment included wells containing only cells in culture medium, and culture medium only. At time of testing, culture medium was removed from wells and replaced with a warmed, sterile-filtered solution consisting of DPBS with calcium and magnesium, and 4.5 g/L D-glucose (Millipore-Sigma, Burlington, MA, USA). To wells containing 200 μL DPBS-glucose solution, 20 μL/well WST-1 reagent (Millipore-Sigma, Burlington, MA) was applied and plates were then incubated at 37° C., 5% CO2 for 1 h before plates were read at 450 nm on a SpectraMax M3 Microplate Reader (Molecular Devices, San Jose, CA, USA). Experiments included three replicates per condition.

Compound | rank among DRPs as inhibitor of proliferative activity (NSC-34 cells; DRP 0.01-3 μM, 24 h) | effect of DRP on proliferation activity (NSC-34 cells; DRP 0.01-3 μM, 24 h) | reduction of metabolic activity in NSC-34 compared to CHO [1] | dysmetabolism induced by DRP challenge ([1]; DRP 10 nM-3 μM, 24 h) | abrogation of GR-induced proliferation inhibition (NSC-34 cells; all doses (1-60 μM)) | abrogation of GR-induced proliferation inhibition (NSC-34 cells; dose 3 μM) | excessive proliferation (NSC-34 cells; 300 nM GR15 or PR15, 24 h, all doses tested (1-60 μM)) | abrogation of PR-induced proliferation inhibition (NSC-34 cells; 300 nM PR15, 24 h, all doses (1-60 μM)) | abrogation of ADMe-GR15-induced dysmetabolism ([1]; 3 μM ADMe-GR15 challenge, 24 h, MS023 0.1-10 μM, three repeats) | lowest dose with significant partial abrogation of dysmetabolism in GR-treated cells ([1]; 3 μM GR15, 24 h, MS023 0.01-3 μM) [µM] | dose dependence of abrogation of GR15-induced dysmetabolism ([1]; 3 μM GR15 challenge, 24 h, dose range of the example) | abrogation of GR-induced dysmetabolism ([1]; 3 μM GR15 challenge, 24 h, inhibitor dose 3 μM) | abrogation of GR15-induced dysmetabolism ([1]; 3 μM GR15 challenge, 24 h, inhibitor doses 1 and 3 μM) | relative potency against GR- vs PR-induced dysmetabolism ([1]; 3 μM GR15 or PR15, 24 h, MS023 0.01-3 μM) | lowest dose with significant partial abrogation of dysmetabolism in PR-treated cells ([1]; 3 μM PR15, 24 h, MS023 0.01-3 μM) [µM] | dose dependence of abrogation of PR15-induced dysmetabolism ([1]; 3 μM PR15 challenge, 24 h, dose range of the example) | abrogation of PR15-induced dysmetabolism ([1]; 3 μM PR15 challenge, 24 h, inhibitor doses 1 and 3 μM) | dysmetabolism independently of DRP challenge ([1]; no DRP, over all doses tested)
PRPRPRPRPRPRPRPRPRPRPRPRPRPRPR [PR15] | the strongest inhibitor | significantly suppressed proliferative activity in a dose-dependent manner | significantly greater reduction of metabolic activity in NSC-34 |  |  |  |  |  |  |  |  |  |  |  |  |  |  | 
GRGRGRGRGRGRGRGRGRGRGRGRGRGRGR [GR15] |  | significantly suppressed proliferative activity in a dose-dependent manner | significantly greater reduction of metabolic activity in NSC-34 | induced dose-dependent dysmetabolism |  |  |  |  |  |  |  |  |  |  |  |  |  | 
CC(C)Oc1ccc(-c2c[nH]cc2CN(C)CCN)cc1 [MS023] |  |  |  |  | partially abrogated | fully rescuing | without inducing excessive proliferation | fully abrogated | did not abrogate | 0.1 | in a dose-dependent manner; also recorded: consistently dose-dependently abrogated | abrogated GR-induced dysmetabolism | completely abrogated | more potently abrogated GR-induced dysmetabolism | 0.3 | in a dose-dependent manner; also recorded: dose-dependently abrogated | completely abrogated | No doses of MS023 tested induced dysmetabolism; also recorded: No doses of MS023 tested produced dysmetabolism
